Activity calls are given as the source filed them. The calls are words filed in the database; no cut-off is given here.
Columns and labels:
MV4-11 [1] = assay: Induction of apoptosis in human MV4-11 cells assessed as late apoptotic cells at 5 uM measured after 72 hrs by Annexin V FITC/PI staining based flow cytometry analysis (reference value: 3.02%); type: functional
[2] = biological target: T1, Histone-lysine N-methyltransferase NSD2 (Homo sapiens) (UniProt O96028); assay: Inhibition of NSD2 in human RS4-11 cells assessed as decrease in PAK1 gene expression at 10 uM incubated for 72 hrs by RT-PCR analysis; type: cell-based
T1 sequence (whole entry): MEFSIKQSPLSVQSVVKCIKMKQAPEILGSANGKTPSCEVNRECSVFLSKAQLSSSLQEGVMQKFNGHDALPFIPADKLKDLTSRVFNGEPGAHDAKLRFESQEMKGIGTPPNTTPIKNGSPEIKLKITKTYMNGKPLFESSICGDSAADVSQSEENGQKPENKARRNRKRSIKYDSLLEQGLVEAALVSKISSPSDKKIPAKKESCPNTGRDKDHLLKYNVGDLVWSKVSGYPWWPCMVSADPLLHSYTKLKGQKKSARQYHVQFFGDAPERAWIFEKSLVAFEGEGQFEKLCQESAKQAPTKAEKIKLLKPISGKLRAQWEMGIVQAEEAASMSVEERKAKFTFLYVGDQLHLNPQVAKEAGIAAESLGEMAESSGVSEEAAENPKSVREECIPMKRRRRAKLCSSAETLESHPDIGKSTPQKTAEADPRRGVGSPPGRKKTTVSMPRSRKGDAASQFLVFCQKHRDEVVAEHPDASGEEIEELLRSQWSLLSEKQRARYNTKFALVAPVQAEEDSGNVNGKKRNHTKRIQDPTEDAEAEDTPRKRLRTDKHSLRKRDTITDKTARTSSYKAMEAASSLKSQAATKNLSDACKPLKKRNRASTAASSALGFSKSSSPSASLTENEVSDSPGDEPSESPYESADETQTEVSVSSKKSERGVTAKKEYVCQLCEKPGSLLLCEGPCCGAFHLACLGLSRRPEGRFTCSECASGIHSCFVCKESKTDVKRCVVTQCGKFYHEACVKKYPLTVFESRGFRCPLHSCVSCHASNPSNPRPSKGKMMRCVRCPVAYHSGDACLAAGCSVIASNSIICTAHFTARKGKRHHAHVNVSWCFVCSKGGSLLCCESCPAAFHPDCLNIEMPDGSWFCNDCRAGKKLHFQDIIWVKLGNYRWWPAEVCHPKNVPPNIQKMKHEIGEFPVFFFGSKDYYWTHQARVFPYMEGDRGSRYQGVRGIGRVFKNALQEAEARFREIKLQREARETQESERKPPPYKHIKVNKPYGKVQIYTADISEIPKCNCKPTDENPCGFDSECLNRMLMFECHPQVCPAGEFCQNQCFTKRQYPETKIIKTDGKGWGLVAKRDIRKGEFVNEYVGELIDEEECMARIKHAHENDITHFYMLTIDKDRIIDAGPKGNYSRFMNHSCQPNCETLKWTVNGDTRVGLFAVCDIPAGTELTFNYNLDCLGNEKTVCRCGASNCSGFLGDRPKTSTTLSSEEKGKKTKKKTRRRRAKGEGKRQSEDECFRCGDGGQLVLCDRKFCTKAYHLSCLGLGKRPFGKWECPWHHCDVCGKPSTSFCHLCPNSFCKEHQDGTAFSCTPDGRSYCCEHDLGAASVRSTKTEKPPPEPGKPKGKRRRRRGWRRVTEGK

KMS-11 [3] = assay: Induction of apoptosis in human KMS-11 cells assessed as viable cells at 5 uM measured after 72 hrs by Annexin V FITC/PI staining based flow cytometry analysis (reference value: 69.4%); type: functional; conditions: read-out: Activity
MM1.S = assay: Antiproliferative activity against human MM1.S cells assessed as inhibition of cell proliferation measured after 6 days by CCK8 assay; type: functional, cell-based; conditions: 144 h
KMS-11 [4] = assay: Induction of apoptosis in human KMS-11 cells assessed as early apoptotic cells at 5 uM measured after 72 hrs by Annexin V FITC/PI staining based flow cytometry analysis (reference value: 16.5 %); type: functional
KMS-11 [5] = assay: Cell cycle arrest in human KMS-11 cells assessed as increase in accumulation of G0/G1 phase at 5 to 10 uM measured after 24 hrs by PI staining based flow cytometric analysis; type: functional; conditions: dose 5-10 µM
[6] = biological target: T1, Histone-lysine N-methyltransferase NSD2 (Homo sapiens); assay: Inhibition of NSD2 in human RS4-11 cells assessed as decrease in NCAM1 gene expression at 10 uM incubated for 72 hrs by RT-PCR analysis; type: cell-based
KMS-11 [7] = assay: Induction of apoptosis in human KMS-11 cells assessed as necrotic cells at 5 uM measured after 72 hrs by Annexin V FITC/PI staining based flow cytometry analysis (reference value: 0.88%); type: functional
MV4-11 [8] = assay: Induction of apoptosis in human MV4-11 cells assessed as necrotic cells at 10 uM measured after 72 hrs by Annexin V FITC/PI staining based flow cytometry analysis (reference value: […]); type: functional
MV4-11 [9] = assay: Antiproliferative activity against human MV4-11 cells assessed as inhibition of cell proliferation measured after 6 days by CCK8 assay; type: functional, cell-based; conditions: MV4-11, 144 h
[10] = biological target: T1, Histone-lysine N-methyltransferase NSD2 (Homo sapiens); assay: Inhibition of NSD2 in human RS4-11 cells assessed as decrease in TEMEL2 gene expression at 10 uM incubated for 72 hrs by RT-PCR analysis; type: cell-based
[11] = biological target: T1, Histone-lysine N-methyltransferase NSD2 (Homo sapiens); assay: Inhibition of NSD2 in human KMS-11 cells assessed as decrease in TGFA gene expression at 10 uM incubated for 72 hrs by RT-PCR analysis; type: cell-based
MV4-11 [12] = assay: Induction of apoptosis in human MV4-11 cells assessed as viable cells at 10 uM measured after 72 hrs by Annexin V FITC/PI staining based flow cytometry analysis (reference value: 91.7%); type: functional; conditions: read-out: Activity
KMS-11 [13] = assay: Induction of apoptosis in human KMS-11 cells assessed as viable cells at 10 uM measured after 72 hrs by Annexin V FITC/PI staining based flow cytometry analysis (reference value: 69.4%); type: functional; conditions: read-out: Activity
MV4-11 [14] = assay: Induction of apoptosis in human MV4-11 cells assessed as early apoptotic cells at 10 uM measured after 72 hrs by Annexin V FITC/PI staining based flow cytometry analysis (reference value: 4.58 %); type: functional
MV4-11 [15] = assay: Induction of apoptosis in human MV4-11 cells assessed as viable cells at 5 uM measured after 72 hrs by Annexin V FITC/PI staining based flow cytometry analysis (reference value: 91.7%); type: functional; conditions: read-out: Activity
[16] = biological target: T1, Histone-lysine N-methyltransferase NSD2 (Homo sapiens); assay: Inhibition of NSD2 in human KMS-11 cells assessed as decrease in PAK1 gene expression at 10 uM incubated for 72 hrs by RT-PCR analysis; type: cell-based
KMS-11 [17] = assay: Induction of apoptosis in human KMS-11 cells assessed as necrotic cells at 10 uM measured after 72 hrs by Annexin V FITC/PI staining based flow cytometry analysis (reference value: 0.88%); type: functional
RS4-11 = assay: Antiproliferative activity against human RS4-11 cells assessed as inhibition of cell proliferation measured after 6 days by CCK8 assay; type: functional, cell-based; conditions: RS4-11, 144 h
[18] = biological target: T1, Histone-lysine N-methyltransferase NSD2 (Homo sapiens); assay: Inhibition of NSD2 in human KMS-11 cells assessed as decrease in NCAM1 gene expression at 10 uM incubated for 72 hrs by RT-PCR analysis; type: cell-based

Cc1cc(CN2CCC(N)CC2)cc(C)c1-c1ncn(C)c1-c1ccc(C#N)c2ccccc12
Activity (MV4-11 [1]): 2.37% | inhibition [2]: Active | viability at 5 µM (KMS-11 [3]): 61.7% | IC50 (MM1.S): 11 µM | Activity (KMS-11 [4]): 21.1% | Activity (KMS-11 [5]): Active | inhibition [6]: Active | Activity (KMS-11 [7]): 0.69% | Activity (MV4-11 [8]): 1.56% | IC50 (MV4-11 [9]): 2.23 µM | inhibition [10]: Active | inhibition [11]: Active | viability at 10 µM (MV4-11 [12]): 37.3% | viability at 10 µM (KMS-11 [13]): 36.8% | Activity (MV4-11 [14]): 41.3% | viability at 5 µM (MV4-11 [15]): 91% | inhibition [16]: Active | Activity (KMS-11 [17]): 1.86% | IC50 (RS4-11): 6.3 µM | inhibition [18]: Active
